Laboratory results: patent US9475766B2, “Substituted aromatic sulfur compounds and methods of their use” (Cephalon, Inc., priority 2011, dated 2016)
Structures can show the parent of a compound that is named as a salt.

Tests used:
[1] = tested on: BxPC3 pancreatic cell line; assay: Cell survival and adhesion assay (luciferase), BxPC3; assay type: cell-based; conditions: BXPC-3, 5 hours, BxPC3 cells overlayed onto human mesothelial cell monolayers, read-out: relative reduction in Luciferase activity, BxPC3 10 μM
Method: (§1) SU86 is a pancreatic cancer cell line. HT29 is a colon cancer cell line. BxPC3 is a pancreatic cell line. A2780 is an ovarian cancer cell line.
(§2) BxPc-3 and Su.86.86 pancreatic and HT-29 colon and A2780 ovarian cancer cell lines were purchased from ATCC and cultured in DMEM supplemented with 10% fetal bovine serum, glutamine, penicillin, and streptomycin. All cells were cultured at 37° C. in a humidified incubator in a 5% CO2 atmosphere. The cancer cell lines were transduced with a retrovirus containing pLuc-puro, a constitutive luciferase reporter and selected in […] media. Transient transfection of a full-length human c-FLIP construct in the vector pcDNA3 was performed as previously described. Scaife et al. Cancer Research 2002, 62: 6870-78.
(§3) Pancreatic cancer cell cultures (BxPc-3 and Su.86.86) and colon cancer (HT-29) and ovarian cancer (A2780) cells that were stably transfected with a firefly luciferase construct were transiently suspended with trypsin-PBS. 10^5 cells were overlayed onto confluent monolayers of human mesothelial cells in 96-well plates while simultaneously adding various concentrations of compounds of the invention or DMSO for 5 hours. The non-adherent cells were carefully washed away from the wells twice with 100 μl/well of blocking buffer (1% BSA in PBS) and twice again with ice-cold PBS. Adherent and surviving cells were detected by luciferase activity in a luminometer as follows. The cells were lysed in 0.1% TritonX-100, 25 mM Gly-Gly (7.8), MgSO4, 4 mM EGTA, 1 mM DTT. The total protein concentration was normalized with lysis buffer. 50 μl of cell lysate was added per well of a 96-well microtiter plate. 50 μl of luciferin substrate (Promega) was added per well and then the light output determined in a luminometer.

[2] = tested on: SU86 pancreatic cancer cell line (Su.86.86); assay: Cell survival and adhesion assay (luciferase), SU86; assay type: cell-based; conditions: 5 hours, SU86 cells overlayed onto human mesothelial cell monolayers, read-out: relative reduction in Luciferase activity, SU86 10 μM
Method: as §1, §2, §3

[3] = tested on: A2780 ovarian cancer cell line; assay: Cell survival and adhesion assay (luciferase), A2780; assay type: cell-based; conditions: 5 hours, A2780 cells overlayed onto human mesothelial cell monolayers, read-out: relative reduction in Luciferase activity, A2780 10 μM
Method: as §1, §2, §3

[4] = tested on: HT29 colon cancer cell line; assay: Cell survival and adhesion assay (luciferase), HT29; assay type: cell-based; conditions: HT-29, 5 hours, HT29 cells overlayed onto human mesothelial cell monolayers, read-out: relative reduction in Luciferase activity, HT29 10 μM
Method: as §1, §2, §3

Work on `CC(C)(C(=O)NC1CCOCC1)c1ccc(S(=O)(=O)/C=C/C#N)cc1` [Example 13, 2-[4-((E)-2-Cyano-ethenesulfonyl)-phenyl]-N-(tetrahydro-pyran-4-yl)-isobutyramide] yielded an inhibition at 10 µM [1] of under 10%, an inhibition at 10 µM [2] of under 10% and an inhibition at 10 µM [3] of under 10%. For the same compound, the inhibition at 10 µM [4] was 10 to 50%.
With `CC(C)(C(=O)NCCO)c1ccc(S(=O)(=O)/C=C/C#N)cc1` [Example 4, 2-[4-((E)-2-Cyano-ethenesulfonyl)-phenyl]-N-(2-hydroxy-ethyl)-isobutyramide] the inhibition at 10 µM [1] was under 10%, the inhibition at 10 µM [2] was under 10% and the inhibition at 10 µM [3] was under 10%. It also gave an inhibition at 10 µM [4] of 10 to 50%.
With `COc1ccc(NC(=O)C(C)(C)c2ccc(S(=O)(=O)/C=C/C#N)cc2)cc1` [Example 23, 2-[4-((E)-2-Cyano-ethenesulfonyl)-phenyl]-N-(4-methoxy-phenyl)-isobutyramide] the melting point was 123 to 126 °C, the inhibition at 10 µM [1] was 50 to 85% and the inhibition at 10 µM [2] was 50 to 85%. The inhibition at 10 µM [3] was over 85%.
`CC(C)(C(=O)NCc1ccc(-n2cccn2)cc1)c1ccc(S(=O)(=O)/C=C/C#N)cc1` (as salt: trifluoroacetic acid salt) [Example 21, 2-[4-((E)-2-Cyano-ethenesulfonyl)-phenyl]-N-(4-pyrazol-1-yl-benzyl)-isobutyramide] gave a melting point of 47 to 53 °C.
Work on `Cc1ccc(O)c(NC(=O)C(C)(C)c2ccc(S(=O)(=O)/C=C/C#N)cc2)c1` [Example 69, 2-[4-((E)-2-Cyano-ethenesulfonyl)-phenyl]-N-(2-hydroxy-5-methyl-phenyl)-isobutyramide] yielded an inhibition at 10 µM [1] of 10 to 50%, an inhibition at 10 µM [2] of 10 to 50% and an inhibition at 10 µM [3] of 50 to 85%. It also gave an inhibition at 10 µM [4] of 50 to 85%.
For `COc1cccc(NC(=O)COc2ccc(S(=O)(=O)/C=C/C#N)cc2C(C)(C)C)c1` [Example 65, 2-[2-tert-Butyl-4-((E)-2-cyano-ethenesulfonyl)-phenoxy]-N-(3-methoxy-phenyl)-acetamide], the inhibition at 10 µM [1] was 50 to 85%, the inhibition at 10 µM [2] was 50 to 85% and the inhibition at 10 µM [3] was over 85%. The inhibition at 10 µM [4] was over 85%.
Compound `CC(C)(C)c1ccc2cc(S(=O)(=O)/C=C/C#N)ccc2n1` [Example 70, (E)-3-(2-tert-Butyl-quinoline-6-sulfonyl)-acrylonitrile] has an inhibition at 10 µM [1] of 50 to 85%, an inhibition at 10 µM [2] of 50 to 85% and an inhibition at 10 µM [3] of over 85%. It also gave an inhibition at 10 µM [4] of over 85%.
`N#C/C=C/S(=O)(=O)c1ccc(C2(C(=O)O)CC2)cc1` [Example 62, 1-[4-((E)-2-Cyano-ethenesulfonyl)-phenyl]-cyclopropanecarboxylic acid] showed an inhibition at 10 µM [1] of under 10%, an inhibition at 10 µM [2] of 10 to 50% and an inhibition at 10 µM [3] of 10 to 50%. For the same compound, the inhibition at 10 µM [4] was under 10%.
`CC(C)(C(=O)N1CCc2ccccc2C1)c1ccc(S(=O)(=O)/C=C/C#N)cc1` [Example 20, (E)-3-{4-[2-(3,4-Dihydro-1H-isoquinolin-2-yl)-1,1-dimethyl-2-oxo-ethyl]-benzenesulfonyl}-acrylonitrile] showed a melting point of 54 to 60 °C, an inhibition at 10 µM [1] of over 85% and an inhibition at 10 µM [2] of 50 to 85%. For the same compound, the inhibition at 10 µM [3] was over 85%.
With `CC(C)(C(=O)Nc1ccccc1O)c1ccc(S(=O)(=O)/C=C/C#N)cc1` [Example 73, 2-[4-((E)-2-Cyano-ethenesulfonyl)-phenyl]-N-(2-hydroxy-phenyl)-isobutyramide] the inhibition at 10 µM [1] was 50 to 85%, the inhibition at 10 µM [2] was 10 to 50% and the inhibition at 10 µM [3] was 50 to 85%. It also gave an inhibition at 10 µM [4] of over 85%.
With `CC(C)(C(=O)NCC#Cc1ccccc1)c1ccc(S(=O)(=O)/C=C/C#N)cc1` [Example 71, 2-[4-((E)-2-Cyano-ethenesulfonyl)-phenyl]-N-(3-phenyl-prop-2-ynyl)-isobutyramide] the inhibition at 10 µM [1] was over 85%, the inhibition at 10 µM [2] was 50 to 85% and the inhibition at 10 µM [3] was over 85%. It also gave an inhibition at 10 µM [4] of over 85%.
`CC(C)(C(=O)NCc1ccc(Cl)cc1)c1ccc(S(=O)(=O)/C=C/C#N)cc1` [Example 14, N-(4-Chloro-benzyl)-2-[4-((E)-2-cyano-ethenesulfonyl)-phenyl]-isobutyramide] showed an inhibition at 10 µM [1] of 50 to 85%, an inhibition at 10 µM [2] of 50 to 85% and an inhibition at 10 µM [3] of over 85%. It also gave an inhibition at 10 µM [4] of 10 to 50%.
In the case of `CC(C)(C(=O)O)c1ccc(S(=O)(=O)/C=C/C#N)cc1` [Example 1, 2-[4-((E)-2-Cyano-ethenesulfonyl)-phenyl]-2-methyl-propionic acid], the inhibition at 10 µM [1] is reported as under 10%, the inhibition at 10 µM [2] is reported as 10 to 50% and the inhibition at 10 µM [3] is reported as under 10%. The inhibition at 10 µM [4] was 10 to 50%.
With `CC(C)(C)c1cccc(S(=O)(=O)/C=C/C#N)c1` [Example 54, (E)-3-(3-tert-Butyl-benzenesulfonyl)-acrylonitrile] the inhibition at 10 µM [1] was over 85%, the inhibition at 10 µM [2] was over 85% and the inhibition at 10 µM [3] was over 85%. For the same compound, the inhibition at 10 µM [4] was under 10%.
Compound `CC(C)(C(=O)NCc1ccccc1)c1ccc(S(=O)(=O)/C=C/C#N)cc1` [Example 6, N-Benzyl-2-[4-((E)-2-cyano-ethenesulfonyl)-phenyl]-isobutyramide] has an inhibition at 10 µM [1] of 50 to 85%, an inhibition at 10 µM [2] of 50 to 85% and an inhibition at 10 µM [3] of over 85%. The inhibition at 10 µM [4] was under 10%.
Compound `CN1CCN(C(=O)C(C)(C)c2ccc(S(=O)(=O)/C=C/C#N)cc2)CC1` [Example 9, (E)-3-{4-[1,1-Dimethyl-2-(4-methyl-piperazin-1-yl)-2-oxo-ethyl]-benzenesulfonyl}-acrylonitrile] has an inhibition at 10 µM [1] of under 10%, an inhibition at 10 µM [2] of under 10% and an inhibition at 10 µM [3] of under 10%. It also gave an inhibition at 10 µM [4] of under 10%.
For `CC(C)(C(=O)N1CCOCC1)c1ccc(S(=O)(=O)/C=C/C#N)cc1` [Example 3, (E)-3-[4-(1,1-Dimethyl-2-morpholin-4-yl-2-oxo-ethyl)-benzenesulfonyl]-acrylonitrile], the inhibition at 10 µM [1] was 10 to 50%, the inhibition at 10 µM [2] was under 10% and the inhibition at 10 µM [3] was 10 to 50%. The inhibition at 10 µM [4] was under 10%.
Work on `CC(C)(C(=O)NC1CCCCC1)c1ccc(S(=O)(=O)/C=C/C#N)cn1` [Example 86, 2-[5-((E)-2-Cyano-ethenesulfonyl)-pyridin-2-yl]-N-cyclohexyl-isobutyramide] yielded an inhibition at 10 µM [1] of 50 to 85%, an inhibition at 10 µM [2] of 10 to 50% and an inhibition at 10 µM [3] of 10 to 50%. It also gave an inhibition at 10 µM [4] of over 85%.
`CC(C)(C)c1ccc(S/C=C/C#N)cc1` [Example 60, (E)-3-(4-tert-Butyl-phenylsulfanyl)-acrylonitrile] showed an inhibition at 10 µM [1] of under 10%, an inhibition at 10 µM [2] of under 10% and an inhibition at 10 µM [3] of under 10%. The inhibition at 10 µM [4] was under 10%.
`CC(C)(C)c1cc(S(=O)(=O)/C=C/C#N)ccc1OCC(=O)O` [Example 61, [2-tert-Butyl-4-((E)-2-cyano-ethenesulfonyl)-phenoxy]-acetic acid] gave an inhibition at 10 µM [1] of 10 to 50%, an inhibition at 10 µM [2] of under 10% and an inhibition at 10 µM [3] of under 10%. For the same compound, the inhibition at 10 µM [4] was under 10%.
`CC(C)(C(=O)NCC1CC1)c1ccc(S(=O)(=O)/C=C/C#N)cc1` [Example 10] showed an inhibition at 10 µM [1] of 10 to 50%, an inhibition at 10 µM [2] of 10 to 50% and an inhibition at 10 µM [3] of 50 to 85%. It also gave an inhibition at 10 µM [4] of under 10%.
`CC(C)CNC(=O)C(C)(C)c1ccc(S(=O)(=O)/C=C/C#N)cc1` [Example 8, 2-[4-((E)-2-Cyano-ethenesulfonyl)-phenyl]-N-isobutyl-isobutyramide] gave an inhibition at 10 µM [1] of 50 to 85%, an inhibition at 10 µM [2] of 50 to 85% and an inhibition at 10 µM [3] of 50 to 85%. The inhibition at 10 µM [4] was 10 to 50%.
Compound `CC(C)(c1ccc(S(=O)(=O)/C=C/C#N)cc1)c1nnc(-c2ccccc2)o1` [Example 72, (E)-3-{4-[1-Methyl-1-(5-phenyl-[1,3,4]oxadiazol-2-yl)-ethyl]-benzenesulfonyl}-acrylonitrile] has an inhibition at 10 µM [1] of 50 to 85%, an inhibition at 10 µM [2] of 50 to 85% and an inhibition at 10 µM [3] of over 85%. The inhibition at 10 µM [4] was over 85%.
Work on `Cc1ccc2oc(C(C)(C)c3cccc(S(=O)(=O)/C=C/C#N)c3)nc2c1` [Example 66, (E)-3-{3-[1-Methyl-1-(5-methyl-benzoxazol-2-yl)-ethyl]-benzenesulfonyl}-acrylonitrile; compound with trifluoro-acetic acid] yielded an inhibition at 10 µM [1] of 50 to 85%, an inhibition at 10 µM [2] of 50 to 85% and an inhibition at 10 µM [3] of over 85%. The inhibition at 10 µM [4] was over 85%.
`CC(C)(C(=O)NCc1cccs1)c1ccc(S(=O)(=O)/C=C/C#N)cc1` [Example 15, 2-[4-((E)-2-Cyano-ethenesulfonyl)-phenyl]-N-thiophen-2-ylmethyl-isobutyramide] showed an inhibition at 10 µM [1] of 50 to 85%, an inhibition at 10 µM [2] of 50 to 85% and an inhibition at 10 µM [3] of over 85%. The inhibition at 10 µM [4] was under 10%.
In the case of `CC(C)(C)c1cc(S(=O)(=O)/C=C/C#N)ccc1OCC(=O)NCc1ccc(F)cc1` [Example 64, 2-[2-tert-Butyl-4-((E)-2-cyano-ethenesulfonyl)-phenoxy]-N-(4-fluoro-benzyl)-acetamide], the inhibition at 10 µM [1] is reported as over 85%, the inhibition at 10 µM [2] is reported as 50 to 85% and the inhibition at 10 µM [3] is reported as over 85%. It also gave an inhibition at 10 µM [4] of over 85%.
